Measurements from US20120088667A1, “SAFENING AGENT” (priority 2009, published 2012).
Read-outs that look alike come from different tables or passages of the source.

What was measured:
[1] = system: Winter Wheat cv Limerick; assay: Safening of fertilisers, pot trial: phytotoxicity and vigour scores, winter wheat; format: in vivo; details: in vivo
Source text: (§1) The safening system and the fertilizer were applied either simultaneously or sequentially.
(§2) Sprayed: mid-tillering phase (GS23). Winter Wheat: cv Limerick, sown 4 Jun. […] Sprayed: mid-tillering phase (GS23). Lettuce: cv Set, sown 10 Jul. 2008, at one seed per pot, in John Innes No 1 compost. Date of spraying: 30 July; Dates of measurement: 7 August, 14 August, 28 August. Sprayed: 2 true leaf stage.

[2] = system: PEA cv Ragtime; assay: Root nodulation and safening, pea, compost of normal pH (Example 7.6); details: compost of normal pH (6.5)
Source text: (§3) The safener/safening system and the fertiliser were applied to the crops either simultaneously or sequentially.
(§4) Co=100% Cobalt Sulphate (20 g per litre and per hectare). FF1=20 g per litre Cobalt Sulphate (as per Co above) plus “Miracle-Gro” at xl recommended rate (applied at 15 g per 2.5 sq metres). Miracle-Gro contains: 24% N, 4% P, 13% K, plus 0.02% B, 0.03% Cu, 0.19% Fe, 0.05% Mn, 0.001% Mo and 0.03% Zn. FF2=20 g per litre Cobalt Sulphate plus Miracle-Gro at ×2 recommended rate. SAF: at least one from class (f) each at <3 g/l, plus at least one from class (c).
PEA—TRIAL 7.6—cv Ragtime. Dates as per Example 7.5 above, but sown in compost of normal pH (6.5). […] No inoculum was applied.

[3] = system: Glycine max (Soybean); assay: Root nodulation and safening, soybean, compost of normal pH (Example 7.2); details: compost of normal pH (6.5)
Source text: as §3, §4
Dates as per Example 7.1 above, but sown in compost of normal pH (6.5). Each treatment represents the mean values for 12 plants, within four replicates. Sowing density 110 kg/ha. Standard inoculant applied at sowing.

[4] = system: Winter wheat cv Alchemy; assay: Safening of herbicides (Chlorotoluron, Isoproturon, Flumioxazin), winter wheat
Source text: (§5) Safening systems were applied to crops of oilseed rape and winter treated with various herbicides (Bifenox (with insecticide), Carbetamide, Propaquizafop, Chlorotoluron, Isoproturon, Flumioxazin). The safening system and the herbicide were applied to the crops either simultaneously or sequentially.
(§6) Oilseed rape: cv Excalibur, sown 26 Apr. 2008, at two seeds per 9 cm pot, sown in normal pH multi-purpose compost. Date of spraying: 6 June; Dates of measurement/scoring: 13 June, 20 June, 5 July. Winter wheat: cv Alchemy, sown 23 Apr. 2008, at seven seeds per 9 cm pot, sown in normal pH multi-purpose compost. Date of spraying: 24 May; Dates of measurement/scoring: 31 May, 7 June, 21 June. SAF: at least one from class (f) each at <3 g/l, plus at least one from class (c).
(§7) Statistical Layout: Randomised Complete Block trials, under glasshouse conditions, United Kingdom.

[5] = system: NAVY BEAN cv Mogex; assay: Root nodulation and safening, navy bean, compost of low pH (Example 7.3); details: compost of low pH (5.0-5.5)
Source text: as §3, §4
NAVY BEAN cv Mogex. Scored/Counted+28 Days after Spraying. Sown in Compost of low pH (5.0-5.5) on 29 Apr. 2008. Spray Date (VC)=27 May, V1 Date=16 June. Scored/Measured on 11 July. Each treatment represents the mean value of 12 plants, within four replicates. No inoculum applied.

[6] = system: Lettuce cv Set; assay: Safening of fertilisers, pot trial: phytotoxicity and vigour scores, lettuce; format: in vivo
Source text: as §1, §2

[7] = system: PEA cv Ragtime; assay: Root nodulation, rooting and safening, pea, compost of low pH (Examples 7.5 and 7.7)
Source text: as §3, §4
PEA—TRIAL 5—cv Ragtime. Scored/Counted+28 Days after Spraying. Sown in Compost of Low pH (5.0-5.5) on 28 Apr. 2008. Spray Date (VC)=26 May, V1 Date=14 June. Scored/Measured on 9 July. […] No inoculum applied.
Sowing details etc as per Example 7.5.

[8] = system: Winter Barley cv Saffron; assay: Safening of fertilisers, pot trial: phytotoxicity and vigour scores, winter barley; format: in vivo
Source text: as §1, §2

[9] = system: Oilseed rape cv Excalibur; details: for Greenness (0-9) (9 = Deeper Green) + 14 Days / Vigour (0-9) (9 = Most Vigour) + 14 days / Greenness (0-9) + 28 Days / Vigour (0-9) + 28 Days: score 0-9
Source text: as §5, §6, §7

[10] = compost of low pH (5.0-5.5), V1, score 0-9
[11] = low pH compost, application at V1, 0-9 scale
[12] = herbicide Bifenox (with insecticide), Table 3.1
[13] = herbicides Carbetamide and Propaquizafop, Table 3.2
[14] = +28 days, herbicide Bifenox (with insecticide), Table 3.1
[15] = +28 days, herbicides Carbetamide and Propaquizafop, Table 3.2

CC(=O)Nc1ccc(O)cc1 [AC, N-(4-hydroxypheyl)acetamide, reference compound]
Phytotoxicity (0-9) (0 = Dead) + 14 Days [1]: 7.0
Nodules Per Plant (V1) ([2]; V1, no inoculum): 15.4
Nodulation Score (0-9) (V1) ([2]; V1, score 0-9): 4.9
Phyto-Toxicity Score (0-9) (V1) ([2]; V1, score 0-9): 7.0
Vigour Score (0-9) (V1) ([2]; V1, score 0-9): 6.7
Nodules Per Plant (VC) ([2]; VC): 16.4
Nod Score (0-9) (VC) ([2]; VC, score 0-9): 5.0
Nodules Per Plant (V1) ([3]; V1, mean of 12 plants): 29.9
Nodulation Score (0-9) (V1) ([3]; V1, score 0-9): 5.5
Phyto-Toxicity Score (0-9) (V1) ([3]; V1, score 0-9): 8.0
Vigour Score (0-9) (V1) ([3]; V1, score 0-9): 6.5
Nodules Per Plant (VC) ([3]; VC): 32.0
Nod Score (0-9) (VC) ([3]; VC, score 0-9): 5.7
Greenness (0-9) (9 = Deeper Green) + 14 Days ([4]; Table 3.3, no herbicide): 8.0
Greenness (0-9) + 28 Days ([4]; Table 3.3, no herbicide): 8.0
Phytotoxicity (0-9) + 28 Days ([4]; Table 3.3, no herbicide): 8.0
Greenness (0-9) (9 = Deeper Green) + 14 Days ([4]; Table 3.4, no herbicide): 8.0
Greenness (0-9) + 28 Days ([4]; Table 3.4, no herbicide): 8.0
Phytotoxicity (0-9) + 28 Days ([4]; Table 3.4, no herbicide): 8.0
Greenness (0-9) (9 = Deeper Green) + 14 Days ([4]; Table 3.5, no herbicide): 8.0
Greenness (0-9) + 28 Days ([4]; Table 3.5, no herbicide): 8.0
Phytotoxicity (0-9) + 28 Days ([4]; Table 3.5, no herbicide): 8.0
Nodules Per Plant (V1) ([5]; V1, +28 days after spraying, no inoculum): 19.3
Nodulation Score (0-9) (V1) ([5]; V1, score 0-9): 3.1
Phyto-Toxicity Score (0-9) (V1) ([5]; V1, score 0-9): 5.6
Vigour Score (0-9) (V1) ([5]; V1, score 0-9): 6.0
Nodules Per Plant (VC) ([5]; VC): 22.1
Nod Score (0-9) (VC) ([5]; VC, score 0-9): 3.5
Vigour (0-9) (9 = Most Vigour) + 14 days ([6]; 336 h): 8.0
Vigour (0-9) + 28 Days ([6]; 672 h): 8.0
Vigour (0-9) (9 = Most Vigour) + 14 days ([6]; Table 1.8, lettuce, KP/ATS, score 0-9, +14 days): 8.0
Vigour (0-9) + 28 Days ([6]; Table 1.8, lettuce, KP/ATS, score 0-9, +28 days): 8.0
Vigour (0-9) (9 = Most Vigour) + 14 days ([6]; Table 1.9, lettuce, general fertilisers, score 0-9, 9 = Most Vigour, +14 days): 8.0
Vigour (0-9) + 28 Days ([6]; Table 1.9, lettuce, general fertilisers, score 0-9, +28 days): 8.0
Phytotoxicity (0-9) (0 = Dead) + 14 Days ([6]; in vivo): 7.0
Phytotoxicity (0-9) (0 = Dead) + 28 Days ([6]; in vivo): 6.5
Nodules Per Plant (V1) ([7]; compost of low pH (5.0-5.5), V1, +28 days after spraying, no inoculum): 16.7
Nodulation Score (0-9) (V1) [7, 10]: 5.0
Phyto-Toxicity Score (0-9) (V1) [7, 10]: 5.2
Vigour Score (0-9) (V1) [7, 10]: 5.1
Nodules Per Plant (VC) ([7]; compost of low pH (5.0-5.5), VC): 17.3
Nod Score (0-9) (VC) ([7]; compost of low pH (5.0-5.5), VC, score 0-9): 5.2
Nodules Per Plant (V1) ([7]; low pH compost, application at V1 (data from Example 7.5)): 16.7
Nodulation Score (0-9) (V1) [7, 11]: 5.0
Phyto-Toxicity Score (0-9) (V1) [7, 11]: 5.2
Rooting Score (0-9) (V1) [7, 11]: 4.2
Vigour (0-9) (9 = Most Vigour) + 14 days ([8]; 336 h): 7.0
Vigour (0-9) + 28 Days ([8]; 672 h): 8.0
Vigour (0-9) (9 = Most Vigour) + 14 days ([8]; Table 1.3, winter barley, general fertilisers, score 0-9, +14 days): 7.0
Vigour (0-9) + 28 Days ([8]; Table 1.3, winter barley, general fertilisers, score 0-9, +28 days): 8.0
Phytotoxicity (0-9) + 28 Days ([9]; score 0-9, 0 = dead, +28 days, herbicides Carbetamide and Propaquizafop, Table 3.2): 8.0
Greenness (0-9) (9 = Deeper Green) + 14 Days [9, 12]: 8.0
Vigour (0-9) (9 = Most Vigour) + 14 days [9, 12]: 8.0
Greenness (0-9) (9 = Deeper Green) + 14 Days [9, 13]: 8.0
Vigour (0-9) (9 = Most Vigour) + 14 days [9, 13]: 8.0
Greenness (0-9) + 28 Days [9, 14]: 8.0
Vigour (0-9) + 28 Days [9, 14]: 8.0
Greenness (0-9) + 28 Days [9, 15]: 8.0
Vigour (0-9) + 28 Days [9, 15]: 8.0
